In patent publication US8053603B2, “Tetralone-based monoamine reuptake inhibitors” (Sunovion Pharmaceuticals Inc., priority 2006, dated 2011):
Like-named read-outs stand apart in the source and are kept apart here.

Legend:
[1] = biological target: T1, recombinant human dopamine transporter (Homo sapiens, UniProt Q01959); experiment: Dopamine functional uptake assay for human reuptake transporter; format: cell-based; conditions: [3H]dopamine uptake, CHO-K1 or HEK293 cells expressing human dopamine transporter; read-out: Human IC50 (nM) DAT
T1 construct: expressed in transfected cells; host or cells: CHO-K1 or HEK293
T1 sequence (Q01959 whole entry): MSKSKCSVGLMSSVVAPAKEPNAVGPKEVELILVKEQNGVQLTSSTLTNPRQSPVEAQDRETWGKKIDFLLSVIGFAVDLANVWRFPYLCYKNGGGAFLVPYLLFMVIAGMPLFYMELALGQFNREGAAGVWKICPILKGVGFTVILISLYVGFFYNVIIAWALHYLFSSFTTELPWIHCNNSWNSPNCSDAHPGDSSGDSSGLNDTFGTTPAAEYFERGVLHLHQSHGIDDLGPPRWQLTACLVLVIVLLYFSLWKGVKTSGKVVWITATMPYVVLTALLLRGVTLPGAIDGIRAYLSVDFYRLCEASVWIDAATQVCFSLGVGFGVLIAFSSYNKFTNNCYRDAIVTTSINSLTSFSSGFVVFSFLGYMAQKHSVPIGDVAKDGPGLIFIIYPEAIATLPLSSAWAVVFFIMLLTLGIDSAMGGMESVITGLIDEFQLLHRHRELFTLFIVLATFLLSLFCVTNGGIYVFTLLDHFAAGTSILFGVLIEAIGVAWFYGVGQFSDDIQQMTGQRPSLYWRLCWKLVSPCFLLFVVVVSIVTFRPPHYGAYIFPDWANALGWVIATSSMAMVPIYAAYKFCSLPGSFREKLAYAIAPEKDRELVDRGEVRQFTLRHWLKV
Method: Dopamine Functional Uptake Assay for Human Reuptake Transporter
Either CHO-K1 or HEK293 cells expressing human recombinant dopamine transporter were plated before the assay. Test compound and/or vehicle was preincubated with cells in modified HEPES buffer pH 7.1 or pH 7.4 for 20 minutes at 18 to 25° C. and 50 nM [^3H]dopamine was then added for an additional timed incubation period (10 to 30 minutes). After washing the cells to remove [^3H]dopamine not internalized, the cells were lysed, and the amount of tritium in the lysate was measured using a liquid scintillation counter to determine [^3H]dopamine uptake. Non-specific binding of tritium was measured in a control reaction containing 10 μM nomifensine, and was subtracted from the counts for assays to correct for non-specific binding of tritium. Reduction of [^3H]dopamine uptake by 50 percent or more (≧50%) relative to an uninhibited control reaction indicates significant inhibitory activity.

[2] = biological target: T2, recombinant human serotonin transporter (Homo sapiens, UniProt P31645); experiment: Serotonin functional uptake assay for human reuptake transporter; format: cell-based; conditions: [3H]serotonin uptake, HEK-293 cells expressing human serotonin transporter; read-out: Human IC50 (nM) SERT
T2 construct: expressed in transfected cells; host or cells: HEK-293
T2 sequence (P31645 whole entry): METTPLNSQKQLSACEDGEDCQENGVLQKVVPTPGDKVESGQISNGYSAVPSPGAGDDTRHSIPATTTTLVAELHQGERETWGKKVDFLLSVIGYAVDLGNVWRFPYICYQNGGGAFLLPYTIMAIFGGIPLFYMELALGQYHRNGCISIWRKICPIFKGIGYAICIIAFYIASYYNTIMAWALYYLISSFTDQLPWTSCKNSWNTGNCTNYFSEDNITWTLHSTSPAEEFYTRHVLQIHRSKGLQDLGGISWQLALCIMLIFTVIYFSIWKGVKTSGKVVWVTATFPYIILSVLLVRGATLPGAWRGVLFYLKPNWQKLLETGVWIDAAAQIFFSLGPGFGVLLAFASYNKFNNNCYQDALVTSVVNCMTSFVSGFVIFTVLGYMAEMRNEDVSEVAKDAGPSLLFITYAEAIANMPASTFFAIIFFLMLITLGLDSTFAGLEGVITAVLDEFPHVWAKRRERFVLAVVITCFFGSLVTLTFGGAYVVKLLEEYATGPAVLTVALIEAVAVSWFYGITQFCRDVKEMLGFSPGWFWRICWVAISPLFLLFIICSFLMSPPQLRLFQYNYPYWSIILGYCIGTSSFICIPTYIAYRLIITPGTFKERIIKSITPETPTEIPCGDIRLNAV
Method: Serotonin Functional Uptake Assay for Human Reuptake Transporter
HEK-293 cells expressing human serotonin transporter were plated before the assay. […] Cells with internalized [^3H]serotonin were washed and the amount of tritium taken into cells is counted using a liquid scintillation counter to determine [^3H]serotonin uptake.

[3] = biological target: T3, recombinant human norepinephrine transporter (Homo sapiens, UniProt P23975); experiment: Norepinephrine functional uptake assay for human reuptake transporter; format: cell-based; conditions: [3H]norepinephrine uptake, HEK293 or MDCK cells expressing human norepinephrine transporter
T3 construct: expressed in transfected cells; host or cells: HEK293 or MDCK
T3 sequence (P23975 whole entry): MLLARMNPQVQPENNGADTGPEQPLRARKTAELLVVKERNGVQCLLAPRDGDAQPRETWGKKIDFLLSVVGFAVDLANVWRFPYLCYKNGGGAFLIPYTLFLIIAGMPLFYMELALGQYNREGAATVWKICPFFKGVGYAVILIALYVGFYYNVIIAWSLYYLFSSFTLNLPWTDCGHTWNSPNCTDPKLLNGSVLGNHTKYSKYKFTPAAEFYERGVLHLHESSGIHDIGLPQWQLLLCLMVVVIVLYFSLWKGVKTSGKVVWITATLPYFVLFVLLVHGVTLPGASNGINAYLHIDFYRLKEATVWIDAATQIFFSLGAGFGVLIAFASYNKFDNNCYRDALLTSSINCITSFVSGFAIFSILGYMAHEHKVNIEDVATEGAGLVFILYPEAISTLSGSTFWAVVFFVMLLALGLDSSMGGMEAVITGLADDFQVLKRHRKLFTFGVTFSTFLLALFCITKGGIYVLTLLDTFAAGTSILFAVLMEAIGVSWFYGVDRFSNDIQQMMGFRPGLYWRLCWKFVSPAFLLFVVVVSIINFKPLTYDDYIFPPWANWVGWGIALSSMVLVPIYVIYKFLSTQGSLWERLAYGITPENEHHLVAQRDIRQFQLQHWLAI
Method: Norepinephrine Functional Uptake Assay for Human Reuptake Transporter
The cells were plated before the assay. Test compound and/or vehicle was preincubated with cells in modified HEPES buffer pH 7.1 or pH 7.4 for 20 minutes at 18 to 25° C. . […] After the cells were washed to remove [^3H]norepinephrine not internalized, the cells were lysed, and the amount of tritium in the cell lysate was measured using a liquid scintillation counter to determine [^3H]norepinephrine uptake. Non-specific binding of tritium was measured in a control reaction containing 10 μM imipramine (or 10 μM nisoxetine), and was subtracted from the counts for assays to correct for non-specific binding of tritium. Reduction of [^3H]norepinephrine uptake by 50 percent or more (≧50%) relative to an uninhibited control reaction indicates significant inhibitory activity.

serotonin uptake sites = serotonin uptake sites (Homo sapiens, UniProt P31645); conditions: versus racemic 1-(3,4-dichlorophenyl)-3-azabicyclo[3.1.0]hexane; cited from earlier work
Sequence of serotonin uptake sites (P31645 whole entry): as the sequence (P31645 whole entry) above

[4] = in vivo; cited from earlier work

SMILES	IC50 [1] [nM]	IC50 [2] [nM]	IC50 ([3]; read-out: Human IC50 (nM) NET) [nM]	affinity for the serotonin uptake sites compared with the racemic compound (serotonin uptake sites)	immobility in the tail suspension test [4]	IC50 ([3]; Human IC50 (nM) NET) [nM]
CC1C[C@@H](c2ccc(Cl)c(Cl)c2)c2ccccc2/C1=N\O (single isomer, unassigned) [Compound 58]	436	1700	2840	–	–	–
Clc1ccc([C@@]23CNC[C@@H]2C3)cc1Cl (single isomer, unassigned) [DOV 21,947, (+)-1-(3,4-dichlorophenyl)-3-azabicyclo[3.1.0]hexane]	–	–	–	significantly greater affinity	dose-dependent reduction in immobility	–
CN[C@H]1Cc2ccc(OC)cc2[C@@H](c2ccc(Cl)c(Cl)c2)C1 (stereo in doubt) [Compound 32a.3, 4-(3,4-dichlorophenyl)-6-methoxy-N-methyl-1,2,3,4-tetrahydronaphthalen-2-amine]	1500	4380	1050	–	–	–
CN[C@H]1Cc2cc(OC)ccc2[C@@H](c2ccc(Cl)c(Cl)c2)C1 (stereo in doubt) [Compound 32c.3, 4-(3,4-dichlorophenyl)-7-methoxy-N-methyl-1,2,3,4-tetrahydronaphthalen-2-amine]	92	105	198	–	–	–
CC(C1=Cc2ccccc2[C@H](c2ccc(Cl)c(Cl)c2)C1)N(C)C (stereo partly drawn) [Compound 48, 1-((S)-4-(3,4-dichlorophenyl)-3,4-dihydronaphthalen-2-yl)-N,N-dimethylethanamine]	2440	134	2720	–	–	–
CC(N)[C@@H]1Cc2ccccc2[C@H](c2ccc(Cl)c(Cl)c2)C1 (stereo partly drawn) [Compound 51, 1-((2S,4S)-4-(3,4-dichlorophenyl)-1,2,3,4-tetrahydronaphthalen-2-yl)ethanamine]	30	2	–	–	–	12
CC1(C)C[C@@H](c2ccc(Cl)c(Cl)c2)c2ccccc2C1N (stereo partly drawn) [Compound 59, (4S)-4-(3,4-dichlorophenyl)-2,2-dimethyl-1,2,3,4-tetrahydronaphthalen-1-amine]	1080	5500	> 10000	–	–	–
